Test results from patent US20060293307A1, “Oxazolidinone derivatives as antimicrobials” (priority 2002, published 2006).
Converted amounts (≈) assume the structure as drawn. Read-outs that look alike come from different tables or passages of the source.

Experiments:
S. aureus ATCC 25923 = test: MIC, agar incorporation method; type: cell-based, Staphylococcus aureus; details: S. No. 1, organism cell empty
S. aureus (MRSA) 15187 = test: MIC, agar incorporation method; type: cell-based, Staphylococcus aureus; details: S. No. 4, S. aureus (MRSA) 15187
S. aureus (MRSA) 21299 = test: MIC, agar incorporation method; type: cell-based, Staphylococcus aureus; details: S. No. 5, S. aureus (MRSA) 21299
[1] = tested on: S. aureus (MRSA 33) Cipro R; test: MIC, agar incorporation method; type: cell-based, Staphylococcus aureus; details: S. No. 7, S. aureus (MRSA 33) Cipro R
[2] = tested on: S. epidermidis ATCC 12228; test: MIC, agar incorporation method; type: cell-based, Staphylococcus epidermidis; details: S. No. 10, S. epidermidis ATCC 12228
[3] = tested on: S. epidermidis (MRSE) 23760; test: MIC, agar incorporation method; type: cell-based, Staphylococcus epidermidis; details: S. No. 11, S. epidermidis (MRSE) 23760
S. epidermidis 823 = test: MIC, agar incorporation method; type: cell-based, Staphylococcus epidermidis; details: S. No. 12, S. epidermidis 823
E. faecium 6A (VRE) = test: MIC, agar incorporation method; type: cell-based, Enterococcus faecium; details: S. No. 21, E. faecium 6A (VRE)
E. durans 581 = test: MIC, agar incorporation method; type: cell-based; details: S. No. 24, E. durans 581
E. coli 25922 = test: MIC, agar incorporation method; type: cell-based; details: S. No. 25, E. coli 25922
K. oxytoca 49131 = test: MIC, agar incorporation method; type: cell-based; details: S. No. 27, K. oxytoca 49131
Acinetobacter 9956 = test: MIC, agar incorporation method; type: cell-based; details: S. No. 30, Acinetobacter 9956
S. pneumoniae AB4 = test: MIC, agar incorporation method; type: cell-based, Streptococcus pneumoniae; details: S. No. 33, S. pneumoniae AB4
S. pneumoniae AB 10 = test: MIC, agar incorporation method; type: cell-based, Streptococcus pneumoniae; details: S. No. 35, S. pneumoniae AB 10
S. pneumoniae AB 31 = test: MIC, agar incorporation method; type: cell-based, Streptococcus pneumoniae; details: S. No. 36, S. pneumoniae AB 31
S. pneumoniae AB 14 = test: MIC, agar incorporation method; type: cell-based, Streptococcus pneumoniae; details: S. No. 37, S. pneumoniae AB 14
S. pneumoniae 217 = test: MIC, agar incorporation method; type: cell-based, Streptococcus pneumoniae; details: S. No. 38, S. pneumoniae 217
S. pneumoniae AB 16 = test: MIC, agar incorporation method; type: cell-based, Streptococcus pneumoniae; details: S. No. 39, S. pneumoniae AB 16
S. pneumoniae AB 21 = test: MIC, agar incorporation method; type: cell-based, Streptococcus pneumoniae; details: S. No. 41, S. pneumoniae AB 21
S. pneumoniae AB 23 = test: MIC, agar incorporation method; type: cell-based, Streptococcus pneumoniae; details: S. No. 43, S. pneumoniae AB 23
S. pneumoniae ATCC 6303 = test: MIC, agar incorporation method; type: cell-based, Streptococcus pneumoniae; details: S. No. 50, S. pneumoniae ATCC 6303
S. pyogenes 20361 = test: MIC, agar incorporation method; type: cell-based, Streptococcus pyogenes; details: S. No. 53, S. pyogenes 20361
S. pneumoniae 1251 = test: MIC, agar incorporation method; type: cell-based, Streptococcus pneumoniae; details: S. No. 54, S. pneumoniae 1251
Moraxella M1 = test: MIC, agar incorporation method; type: cell-based; details: S. No. 58, Moraxella M1
Moraxella cata. M2 = test: MIC, agar incorporation method; type: cell-based; details: S. No. 59, Moraxella cata. M2
H. influenzae R = test: MIC against Haemophilus strains; type: cell-based; details: s. No. 4, H. influenzae R
H. influenzae P318 = test: MIC against Haemophilus strains; type: cell-based; details: s. No. 10, H. influenzae P318
[4] = Staphylococcus aureus, ATCC25923, read-out: MIC
[5] = Staphylococcus aureus, read-out: MIC
[6] = Staphylococcus epidermidis, ATCC12228, read-out: MIC
[7] = Staphylococcus epidermidis, read-out: MIC
[8] = Enterococcus faecium, read-out: MIC
[9] = Enterococcus durans, read-out: MIC
[10] = Escherichia coli, read-out: MIC
[11] = Klebsiella oxytoca, read-out: MIC
[12] = Streptococcus pneumoniae, read-out: MIC
[13] = Streptococcus pneumoniae, AB10, read-out: MIC
[14] = Streptococcus pneumoniae, AB31, read-out: MIC
[15] = Streptococcus pneumoniae, AB14, read-out: MIC
[16] = Streptococcus pneumoniae, AB16, read-out: MIC
[17] = Streptococcus pneumoniae, AB21, read-out: MIC
[18] = Streptococcus pneumoniae, AB23, read-out: MIC
[19] = Streptococcus pneumoniae, ATCC6303, read-out: MIC
[20] = Streptococcus pyogenes, read-out: MIC
[21] = Haemophilus influenzae, read-out: MIC

With `C[C@H](Cl)C(=O)NCC1CN(c2ccc(N3CCN(c4ccc([N+](=O)[O-])s4)CC3)c(F)c2)C(=O)O1` (stereo partly drawn) [Compound No. 7, (S)—N-[[3-[3-Fluoro-4-[N-1-{4-(5-nitro-2-thienyl)piperazinyl}]-phenyl]-2-oxo-5-oxazolidinyl]-methyl]-2-chloro-propionamide] the MIC (S. aureus ATCC 25923) was greater than 8 µg/mL, the MIC (S. aureus (MRSA) 15187) was greater than 8 µg/mL and the MIC (S. aureus (MRSA) 21299) was greater than 8 µg/mL. The MIC [1] was greater than 8 µg/mL, the MIC [2] was 1 µg/mL (≈ 1.95 µM) and the MIC [3] was 4 µg/mL (≈ 7.81 µM). The MIC (S. epidermidis 823) was 2 µg/mL (≈ 3.91 µM), the MIC (E. faecium 6A (VRE)) was greater than 8 µg/mL and the MIC (E. durans 581) was 8 µg/mL (≈ 15.6 µM). It also gave an MIC (E. coli 25922) greater than 8 µg/mL, an MIC (K. oxytoca 49131) greater than 8 µg/mL and an MIC (Acinetobacter 9956) greater than 8 µg/mL. For the same compound, the MIC (S. pneumoniae AB4) was 0.5 µg/mL (≈ 0.977 µM), the MIC (S. pneumoniae AB 10) was 0.5 µg/mL (≈ 0.977 µM) and the MIC (S. pneumoniae AB 31) was 1 µg/mL (≈ 1.95 µM). For the same compound, the MIC (S. pneumoniae AB 14) was 1 µg/mL (≈ 1.95 µM), the MIC (S. pneumoniae 217) was 1 µg/mL (≈ 1.95 µM) and the MIC (S. pneumoniae AB 16) was 1 µg/mL (≈ 1.95 µM). It also gave an MIC (S. pneumoniae AB 21) of 1 µg/mL (≈ 1.95 µM), an MIC (S. pneumoniae AB 23) of 1 µg/mL (≈ 1.95 µM) and an MIC (S. pneumoniae ATCC 6303) of 0.5 µg/mL (≈ 0.977 µM). The MIC (S. pyogenes 20361) was 2 µg/mL (≈ 3.91 µM), the MIC (S. pneumoniae 1251) was 1 µg/mL (≈ 1.95 µM) and the MIC (Moraxella M1) was greater than 8 µg/mL. The MIC (Moraxella cata. M2) was greater than 8 µg/mL, the MIC (H. influenzae R) was greater than 16 µg/mL and the MIC (H. influenzae P318) was greater than 16 µg/mL.
`CC(=O)NC[C@H]1CN(c2ccc(N3CCN(c4ccc(C=O)o4)CC3)c(F)c2)C(=O)O1` [Compound No. 3, (S)—N-[[3-[3-Fluoro-4-[4-(5-formyl-2-furyl)-1-piperazinyl]phenyl]-2-oxo-5-oxazolidinyl]methyl]acetamide] showed an MIC (S. aureus ATCC 25923; [4]) of 1 µg/mL (≈ 2.32 µM), an MIC (S. aureus (MRSA) 15187; [5]) of 1 µg/mL (≈ 2.32 µM) and an MIC (S. aureus (MRSA) 21299; [5]) of 0.5 µg/mL (≈ 1.16 µM). It also gave an MIC [1, 5] of 0.5 µg/mL (≈ 1.16 µM), an MIC [2, 6] of 0.25 µg/mL (≈ 0.581 µM) and an MIC [3, 7] of 0.25 µg/mL (≈ 0.581 µM). It also gave an MIC (S. epidermidis 823; [7]) of 0.5 µg/mL (≈ 1.16 µM), an MIC (E. faecium 6A (VRE); [8]) of 0.5 µg/mL (≈ 1.16 µM) and an MIC (E. durans 581; [9]) of 0.5 µg/mL (≈ 1.16 µM). The MIC (E. coli 25922; [10]) was greater than 16 µg/mL, the MIC (K. oxytoca 49131; [11]) was greater than 16 µg/mL and the MIC (Acinetobacter 9956; read-out: MIC) was greater than 16 µg/mL. For the same compound, the MIC (S. pneumoniae AB4; [12]) was 0.25 µg/mL (≈ 0.581 µM), the MIC (S. pneumoniae AB 10; [13]) was less than 0.125 µg/mL and the MIC (S. pneumoniae AB 31; [14]) was 0.25 µg/mL (≈ 0.581 µM). For the same compound, the MIC (S. pneumoniae AB 14; [15]) was less than 0.125 µg/mL, the MIC (S. pneumoniae 217; [12]) was 0.25 µg/mL (≈ 0.581 µM) and the MIC (S. pneumoniae AB 16; [16]) was 0.25 µg/mL (≈ 0.581 µM). For the same compound, the MIC (S. pneumoniae AB 21; [17]) was 0.25 µg/mL (≈ 0.581 µM), the MIC (S. pneumoniae AB 23; [18]) was 0.25 µg/mL (≈ 0.581 µM) and the MIC (S. pneumoniae ATCC 6303; [19]) was 0.25 µg/mL (≈ 0.581 µM). It also gave an MIC (S. pyogenes 20361; [20]) of 0.25 µg/mL (≈ 0.581 µM), an MIC (S. pneumoniae 1251; [12]) of 0.25 µg/mL (≈ 0.581 µM) and an MIC (Moraxella M1; read-out: MIC) of 2 µg/mL (≈ 4.65 µM). It also gave an MIC (Moraxella cata. M2; read-out: MIC) of 1 µg/mL (≈ 2.32 µM), an MIC (H. influenzae R; [21]) of 8 µg/mL (≈ 18.6 µM) and an MIC (H. influenzae P318; [21]) of 8 µg/mL (≈ 18.6 µM).
For `CC(=O)NC[C@H]1CN(c2ccc(N3CCN(c4ccc(C=O)s4)CC3)c(F)c2)C(=O)O1` [Compound No. 2, (S)—N-[[3-[3-Fluoro-4-[4-(5-formyl-2-thienyl)-1-piperazinyl]phenyl]-2-oxo-5-oxazolidinyl]methyl]acetamide], the MIC (S. aureus ATCC 25923; [4]) was 1 µg/mL (≈ 2.24 µM), the MIC (S. aureus (MRSA) 15187; [5]) was 0.5 µg/mL (≈ 1.12 µM) and the MIC (S. aureus (MRSA) 21299; [5]) was 0.5 µg/mL (≈ 1.12 µM). For the same compound, the MIC [1, 5] was 0.5 µg/mL (≈ 1.12 µM), the MIC [2, 6] was 0.5 µg/mL (≈ 1.12 µM) and the MIC [3, 7] was less than 0.25 µg/mL. The MIC (S. epidermidis 823; [7]) was 0.5 µg/mL (≈ 1.12 µM), the MIC (E. faecium 6A (VRE); [8]) was 1 µg/mL (≈ 2.24 µM) and the MIC (E. durans 581; [9]) was 0.5 µg/mL (≈ 1.12 µM). The MIC (E. coli 25922; [10]) was greater than 16 µg/mL, the MIC (K. oxytoca 49131; [11]) was greater than 16 µg/mL and the MIC (Acinetobacter 9956; read-out: MIC) was greater than 16 µg/mL. For the same compound, the MIC (S. pneumoniae AB4; [12]) was 0.5 µg/mL (≈ 1.12 µM), the MIC (S. pneumoniae AB 10; [13]) was less than 0.25 µg/mL and the MIC (S. pneumoniae AB 31; [14]) was 0.5 µg/mL (≈ 1.12 µM). For the same compound, the MIC (S. pneumoniae AB 14; [15]) was less than 0.25 µg/mL, the MIC (S. pneumoniae 217; [12]) was 0.5 µg/mL (≈ 1.12 µM) and the MIC (S. pneumoniae AB 16; [16]) was less than 0.25 µg/mL. The MIC (S. pneumoniae AB 21; [17]) was 0.5 µg/mL (≈ 1.12 µM), the MIC (S. pneumoniae AB 23; [18]) was 0.5 µg/mL (≈ 1.12 µM) and the MIC (S. pneumoniae ATCC 6303; [19]) was 0.5 µg/mL (≈ 1.12 µM). For the same compound, the MIC (S. pyogenes 20361; [20]) was 0.5 µg/mL (≈ 1.12 µM), the MIC (S. pneumoniae 1251; [12]) was 0.5 µg/mL (≈ 1.12 µM) and the MIC (Moraxella M1; read-out: MIC) was 0.5 µg/mL (≈ 1.12 µM). For the same compound, the MIC (Moraxella cata. M2; read-out: MIC) was 0.5 µg/mL (≈ 1.12 µM), the MIC (H. influenzae R; [21]) was greater than 16 µg/mL and the MIC (H. influenzae P318; [21]) was greater than 16 µg/mL.
